# US10071965B2, “Pyridone FabI inhibitors and uses thereof” (priority 2015, dated 2018)
# Like-named read-outs stand apart in the source and are kept apart here. Marks after values point to notes of the source that are not given here.
# Legend:
# P. mirabilis ATCC35659 = test: MIC microbroth dilution, P. mirabilis ATCC35659; type: cell-based; settings: Proteus mirabilis
# [1] = biological target: M. tuberculosis enoyl-ACP reductase InhA (Mycobacterium tuberculosis (strain ATCC 25618 / H37Rv), UniProt P9WGR1); test: InhA inhibition kinetics; type: biochemical
# saFabI [2] = biological target: T1, saFabI (Staphylococcus aureus (strain MRSA252), UniProt Q6GI75); test: saFabI inhibition kinetics; type: biochemical
# E. coli MG1655 = test: MIC microbroth dilution, E. coli MG1655 with intact AcrAB efflux pump; type: cell-based, Escherichia coli; settings: for MIC: Escherichia coli
# saFabI [3] = biological target: T1, saFabI; test: Jump dilution assay with saFabI; type: biochemical; settings: preincubation with NADPH and saFabI
# E. coli MG1655 ΔacrAB = test: microbe, parasite or virus in culture; type: cell-based, Escherichia coli; settings: for MIC: Escherichia coli
# B. pseudomallei Bp400 [4] = test: microbe, parasite or virus in culture; type: cell-based; settings: Burkholderia pseudomallei
# S. aureus RN4220 = test: MIC microbroth dilution, S. aureus RN4220; type: cell-based, Staphylococcus aureus; settings: Staphylococcus aureus
# F. tularensis LVS [5] = test: microbe, parasite or virus in culture; type: cell-based; settings: Francisella tularensis; for MIC: read-out: MIC (μm), F. tularensis LVS, Table 3; for inhibition at 5 µg/mL: read-out: Francisella tularensis LVS, % inhib.
# M. tuberculosis H37Rv = test: MIC microbroth dilution, M. tuberculosis H37Rv; type: cell-based; settings: Mycobacterium tuberculosis
# YpFabV = YpFabV (Yersinia pestis, UniProt Q8Z9U1); test: biochemical
# bpFabV = bpFabV (Burkholderia pseudomallei, UniProt Q63TE9); type: biochemical; settings: read-out: Burkholderia pseudomallei IC50 (μM), bpFabV
# [6] = biological target: Francisella tularensis FabI (Francisella tularensis subsp. tularensis (strain SCHU S4 / Schu 4), UniProt Q5NGQ3); test: biochemical
# Bt38 = test: microbe, parasite or virus in culture; type: cell-based; settings: Burkholderia pseudomallei, read-out: Bt38, % inhib.
# Yersinia pestis = test: microbe, parasite or virus in culture; type: cell-based; settings: read-out: Yersinia pestis, % inhib.
# bpFabI = bpFabI (Burkholderia pseudomallei, UniProt A0A0H3HP34); test: biochemical
# B. pseudomallei Bp400 [7] = settings: B. pseudomallei Bp400, data according to Ref. 69; cited from earlier work
# F. tularensis LVS [8] = settings: data according to Ref. 69; cited from earlier work
# in vivo = settings: female, ICR, mouse, ip, 100 mg/kg
# MRSA strain BAA1762 = test: Neutropenic mouse thigh infection model; type: in vivo, Swiss Webster mice; settings: 100 mg/kg dose, MRSA BAA1762, neutropenic mouse
# ecFabI = ecFabI (Escherichia coli (strain K12), UniProt P0AEK4); test: ecFabI inhibition kinetics; type: biochemical; settings: Ki^app (nM), [S]/KS = 0.19
# [9] = tested on: PT166-resistant S. aureus RN4220 mutants; test: microbe, parasite or virus in culture; type: cell-based; settings: Staphylococcus aureus
# [10] = E. coli MG1655, Table 3, read-out: MIC (μm)
# [11] = RN4220, S. aureus RN4220, Table 3, read-out: MIC (μm)
# [12] = RN4220, S. aureus RN4220, read-out: MIC
# [13] = M. tuberculosis H37Rv, Table 3, read-out: MIC (μm)
# [14] = H37RV, 4-pyridones table, read-out: Mycobacterium tuberculosis MIC (μg/mL) H37Rv
smiles,measurement,setting,value
"Cc1c(N)cccc1Cn1ccc(OCCc2cccs2)cc1=O [CG400549, reference compound]",MIC,"P. mirabilis ATCC35659; P. mirabilis ATCC35659, read-out: MIC (μm)",> 750 µM
same,Ki,[1],0.582 µM
same,affinity improvement for saFabI,saFabI [2]; relative to PT173,1.5 fold
same,lower antibacterial activity,"E. coli MG1655; E. coli versus S. aureus, Table 3",> 64 fold
same,MIC,E. coli MG1655; [10],> 375 µM
same,off kinetics in jump dilution curve,saFabI [3],rapid off kinetics
same,MIC,E. coli MG1655 ΔacrAB; MG1655,> 375 µM
same,MIC,"E. coli MG1655 ΔacrAB; MG1655, read-out: MIC (μm)",> 375 µM
same,MIC,"B. pseudomallei Bp400 [4]; BP400, read-out: MIC (μm)",376 µM
same,MIC,S. aureus RN4220; [11],5.9 µM
same,MIC,S. aureus RN4220; [12],5.9 µM
same,MIC,F. tularensis LVS [5],5.9 µM
same,MIC,M. tuberculosis H37Rv; [13],> 300 µM
CCCCCCc1cc(=O)c(Oc2ccc(N)cc2C)cn1C [PT155],IC50,YpFabV,> 50 µM
same,IC50,bpFabV,3 ± 0.6 µM
same,IC50,[1],0.107 µM
same,IC50,[6],0.053 µM
same,inhibition at 20 µg/mL,Bt38,90%
same,inhibition at 40 µg/mL,Yersinia pestis,26%
same,IC50,bpFabI,0.14 µM
same,inhibition at 5 µg/mL,F. tularensis LVS [5],91%
same,MIC,M. tuberculosis H37Rv; [14],6.25 µg/mL
"CCc1ccc(Oc2ccccc2)c(O)c1 [PT01, 5-ethyl-2-phenoxyphenol]",MIC,E. coli MG1655; [10],18.7 µM
same,MIC,E. coli MG1655 ΔacrAB; MG1655,0.6 µM
same,MIC,"E. coli MG1655 ΔacrAB; MG1655, read-out: MIC (μm)",0.6 µM
same,MIC (μM),B. pseudomallei Bp400 [7],326.7^c μM
same,MIC,S. aureus RN4220; [11],2.3 µM
same,MIC,S. aureus RN4220; [12],2.3 µM
same,MIC (μM),F. tularensis LVS [8],0.1^c μM
same,MIC,M. tuberculosis H37Rv; [13],72.9 µM
CCCCCCc1cc(=O)c(Oc2ccc([N+](=O)[O-])cc2)cn1C [PT156],IC50,YpFabV,0.18 µM
same,IC50,bpFabV,0.56 ± 0.1 µM
same,IC50,[1],0.407 µM
same,inhibition at 40 µg/mL,Bt38,43%
same,inhibition at 40 µg/mL,Yersinia pestis,29%
same,IC50,bpFabI,0.96 ± 0.1 µM
same,inhibition at 5 µg/mL,F. tularensis LVS [5],88%
same,MIC,M. tuberculosis H37Rv; [14],50 µg/mL
CCCCCCc1cc(=O)c(Oc2ccccc2C)cn1C [PT166],AUC(0-t),in vivo,53000 ng·h/mL
same,Cmax,in vivo,45900 ng/mL
same,Tmax,in vivo,0.25 h
same,half-life,in vivo,2.7 h
same,MIC,"P. mirabilis ATCC35659; ATCC35659, read-out: MIC (μm)",214 µM
same,decrease of bacterial burden in the infected thigh,MRSA strain BAA1762,2.8 log cfu/g tissue
same,IC50,[1],0.0286 µM
same,Ki,[1],0.022 µM
same,Ki,"saFabI [2]; Ki (nM), saFabI",2.7 ± 0.6 nM
same,Ki,"saFabI [2]; Ki, saFabI",2.7 nM
same,Ki,"saFabI [2]; Ki^app (nM), saFabI, [S]/KS = 2",10.1 ± 2.1 nM
same,Ki,"saFabI [2]; Staphylococcus aureus Ki (nM), 4-pyridones table",2.7 nM
same,MIC,"E. coli MG1655; MG1655, 4-pyridones table, in brackets, read-out: MIC for MG1655 with intact efflux pump",> 128 µg/mL
same,MIC,"E. coli MG1655; MG1655, Table 2 footnote e, read-out: MIC against E. coli MG1655 with the intact AcrAB efflux pump",> 425 µM
same,IC50,[6],0.024 µM
same,Ki,ecFabI,8.5 ± 0.2 nM
same,Escherichia coli MIC (μg/mL) MG1655 ΔacrAB,E. coli MG1655 ΔacrAB; 4-pyridones table,2 µg/mL
same,MIC,E. coli MG1655 ΔacrAB; MG1655,6.7 µM
same,MIC,"E. coli MG1655 ΔacrAB; MG1655, read-out: MIC (μm)",6.7 µM
same,lower MIC against E. coli MG1655 lacking AcrAB,E. coli MG1655 ΔacrAB; relative to CG400549,> 50 fold
same,MIC,"[9]; read-out: MIC μm, strain 166R.1, FabI A95V",8.8 µM
same,MIC,"[9]; read-out: MIC μm, strain 166R.2, FabI A95V",8.8 µM
same,MIC,"[9]; read-out: MIC μm, strain 166R.3, FabI A95V and F252L",8.8 µM
same,MIC,"[9]; read-out: MIC μm, strain 166R.4, FabI A95V and E71D",8.8 µM
same,MIC,"[9]; read-out: MIC μm, strain 166R.5, no change in fabI",17.6 µM
same,MIC,"B. pseudomallei Bp400 [4]; BP400, read-out: Burkholderia pseudomallei MIC (μg/mL) Bp400",64 µg/mL
same,MIC,"B. pseudomallei Bp400 [4]; BP400, read-out: MIC (μm)",214 µM
same,MIC,"S. aureus RN4220; RN4220, 4-pyridones table, read-out: Staphylococcus aureus MIC (μg/mL) RN4220",0.24 µg/mL
same,MIC,S. aureus RN4220; [11],0.8 µM
same,MIC,S. aureus RN4220; [12],0.8 µM
same,MIC,"S. aureus RN4220; RN4220, strain RN4220 (parent), Table 4, read-out: MIC μm",0.8 µM
same,MIC,"S. aureus RN4220; RN4220, text, read-out: MIC against Staphylococcus aureus strain RN4220",0.24 µg/mL
same,MIC,F. tularensis LVS [5],0.4 µM
same,MIC,M. tuberculosis H37Rv; [14],3.13 µg/mL
same,MIC,"M. tuberculosis H37Rv; H37RV, M. tuberculosis, read-out: MIC, in vitro anti-mycobacterial activity",10.5 µM
same,MIC,M. tuberculosis H37Rv; [13],10.5 µM
